Test results taken from BindingDB's records for doi:10.1021/jm301365e (Sichuan University, 2012).

Molecular target: Tyrosine-protein kinase SYK (Homo sapiens) (UniProt P43405)
Test: Inhibition of human recombinant SYK by radiometric kinase assay

## CN1CCN(c2ccc(Nc3ncc4nc(Nc5ccccc5)n(C5CCCC5)c4n3)cc2)CC1
  IC50: 720 nM
